Laboratory results from EP0384722A1, “Chemical compositions” (PITMAN-MOORE LIMITED, priority 1989, dated 1990).
Read-outs that look alike come from different tables or passages of the source. Blank lines part the entries; values can stand above or below the compound they belong to.

Key:
[1] = Comparison of bioavailability of Compound A and Trimethoprim (TMP) administered by i/v injection, cats; format: in vivo; conditions: serum, i/v injection at 2 mg/kg; for Est.t1/2 / half-life: cats; for half-life / concentration at 0 h / concentration at 1 h / concentration at 3 h / concentration at 5 h / concentration at 7 h / concentration at 24 h: female, cat, intravenous; for half-life: read-out: Est.t1/2 (converted); for concentration at 0 h / concentration at 1 h / concentration at 3 h / concentration at 5 h / concentration at 7 h / concentration at 24 h: 2 mg/kg; for concentration at 0 h: 0 hours post inj.; for concentration at 1 h: 1 hours post inj.; for concentration at 3 h: 3 hours post inj.; for concentration at 5 h: 5 hours post inj.; for concentration at 7 h: 7 hours post inj.; for concentration at 24 h: 24 hours post inj.
Description: Two young adult female cats, bodyweight around 3 kg, were given i/v injections at 2 mg/kg of TMP or Compound A, using 3 mg/base ml aqueous solutions.

[2] = Comparison of bioavailability of Compound A and Trimethoprim (TMP) administered by i/v injection, dogs; format: in vivo; conditions: i/v injection at 2 mg/kg; for half-life: both sexes, dog, read-out: Est.t1/2 (converted); for half-life / concentration at 0 h / concentration at 1 h / concentration at 3 h / concentration at 5 h / concentration at 7 h / concentration at 24 h / concentration at 30 h / concentration at 48 h: beagle, intravenous, serum; for concentration at 0 h: 0 hours post inj.; for concentration at 1 h: 1 hours post inj.; for concentration at 3 h: 3 hours post inj.; for concentration at 5 h: 5 hours post inj.; for concentration at 7 h: 7 hours post inj.; for concentration at 24 h: 24 hours post inj.; for concentration at 30 h: 30 hours post inj.; for concentration at 48 h: 48 hours post inj.
Description: One male beagle dog, 13.5 kg and one female beagle, 11.1kg, both aged about 18 months, received i/v injections (cephalic vein) of the test compounds at 2mg base/kg, using 15mg base /ml aqueous solutions.

[3] = cat 3, read-out: Serum conc. of Compound A
[4] = cat 4, read-out: Serum conc. of Compound A
[5] = female, dog F, read-out: Serum conc. of Compound A
[6] = male, dog M, read-out: Serum conc. of Compound A
[7] = cat 1, read-out: Serum conc. of TMP
[8] = cat 2, read-out: Serum conc. of TMP
[9] = female, dog F, read-out: Serum conc. of TMP
[10] = male, dog M, read-out: Serum conc. of TMP

Est.t1/2 [1]: 2.4 h | half-life [1]: 144 min | concentration at 0 h [1, 3]: 0 ng/mL | concentration at 1 h [1, 3]: 320 ng/mL | concentration at 3 h [1, 3]: 160 ng/mL | concentration at 5 h [1, 3]: 100 ng/mL | concentration at 7 h [1, 3]: 72 ng/mL | concentration at 24 h [1, 3]: 0 ng/mL | concentration at 0 h [1, 4]: 0 ng/mL | concentration at 1 h [1, 4]: 310 ng/mL | concentration at 3 h [1, 4]: 140 ng/mL | concentration at 5 h [1, 4]: 86 ng/mL | concentration at 24 h [1, 4]: 0 ng/mL | half-life ([2]; dogs): 900 min | concentration at 0 h [2, 5]: 0 ng/mL | concentration at 1 h [2, 5]: 410 ng/mL | concentration at 3 h [2, 5]: 340 ng/mL | concentration at 5 h [2, 5]: 300 ng/mL | concentration at 7 h [2, 5]: 290 ng/mL | concentration at 24 h [2, 5]: 124 ng/mL | concentration at 30 h [2, 5]: 100 ng/mL | concentration at 48 h [2, 5]: 46 ng/mL | concentration at 0 h [2, 6]: 0 ng/mL | concentration at 1 h [2, 6]: 240 ng/mL | concentration at 3 h [2, 6]: 270 ng/mL | concentration at 5 h [2, 6]: 260 ng/mL | concentration at 7 h [2, 6]: 250 ng/mL | concentration at 24 h [2, 6]: 110 ng/mL | concentration at 48 h [2, 6]: 39 ng/mL
SMILES: Cc1cc(Cc2cnc(N)nc2N)c2cccnc2c1N(C)C [Compound A, 2,4-diamino-5-(8-dimethylamino-7-methyl-5-quinolylmethyl) pyrimidine]
half-life in comparison with TMP ([2]; dogs): greatly extended half-life in comparison with TMP

Est.t1/2 [1]: 0.75 h | half-life [1]: 45 min | concentration at 0 h [1, 7]: 0 ng/mL | concentration at 1 h [1, 7]: 460 ng/mL | concentration at 3 h [1, 7]: 60 ng/mL | concentration at 5 h [1, 7]: 0 ng/mL | concentration at 7 h [1, 7]: 0 ng/mL | concentration at 24 h [1, 7]: 0 ng/mL | concentration at 0 h [1, 8]: 0 ng/mL | concentration at 1 h [1, 8]: 440 ng/mL | concentration at 3 h [1, 8]: 84 ng/mL | concentration at 5 h [1, 8]: 0 ng/mL | concentration at 7 h [1, 8]: 0 ng/mL | concentration at 24 h [1, 8]: 0 ng/mL | half-life ([2]; dogs): 156 min | concentration at 0 h [2, 9]: 0 ng/mL | concentration at 1 h [2, 9]: 1200 ng/mL | concentration at 3 h [2, 9]: 740 ng/mL | concentration at 5 h [2, 9]: 310 ng/mL | concentration at 7 h [2, 9]: 210 ng/mL | concentration at 24 h [2, 9]: 0 ng/mL | concentration at 30 h [2, 9]: 0 ng/mL | concentration at 48 h [2, 9]: 0 ng/mL | concentration at 0 h [2, 10]: 0 ng/mL | concentration at 1 h [2, 10]: 1100 ng/mL | concentration at 3 h [2, 10]: 800 ng/mL | concentration at 5 h [2, 10]: 400 ng/mL | concentration at 7 h [2, 10]: 260 ng/mL | concentration at 24 h [2, 10]: 0 ng/mL | concentration at 30 h [2, 10]: 0 ng/mL | concentration at 48 h [2, 10]: 0 ng/mL
SMILES: COc1cc(Cc2cnc(N)nc2N)cc(OC)c1OC [TMP, trimethoprim]
